These results are taken from US10456394B2, “Tetrahydroquinoline substituted hydroxamic acids as selective histone deacetylase 6 inhibitors” (THE BOARD OF TRUSTEES OF THE UNIVERSITY OF ILLINOIS, priority 2016, dated 2019).

For one assay, the system named is traumatic brain injury. Particulars: following traumatic brain injury in rats; cited from earlier work.
For the next assay, the target named is Human HDAC1 (Homo sapiens (Human), UniProt Q13547). Briefly: HDAC enzyme activity inhibition assay, HDAC1. Format: biochemical. Particulars: Table 1; mean of two experiments ± standard deviation; 10-point assay from 30 μM, 3-fold serial dilution.
Chain of Human HDAC1 (Q13547 whole entry): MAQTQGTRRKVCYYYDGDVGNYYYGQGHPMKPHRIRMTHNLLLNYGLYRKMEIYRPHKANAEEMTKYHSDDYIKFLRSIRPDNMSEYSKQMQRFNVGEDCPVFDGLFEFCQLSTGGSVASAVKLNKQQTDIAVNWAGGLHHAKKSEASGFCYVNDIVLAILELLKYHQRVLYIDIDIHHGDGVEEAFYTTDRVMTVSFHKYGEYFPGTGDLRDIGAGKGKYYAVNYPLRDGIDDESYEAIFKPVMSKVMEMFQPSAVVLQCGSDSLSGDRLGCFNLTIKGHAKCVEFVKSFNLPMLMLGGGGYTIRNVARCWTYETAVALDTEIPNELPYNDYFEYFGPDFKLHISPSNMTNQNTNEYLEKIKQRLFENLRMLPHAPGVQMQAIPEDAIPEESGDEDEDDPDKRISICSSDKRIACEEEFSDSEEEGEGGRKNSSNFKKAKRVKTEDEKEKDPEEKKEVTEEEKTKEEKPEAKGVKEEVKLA
The target in the next assay is Human HDAC6 (Homo sapiens (Human), UniProt Q9UBN7). Briefly: HDAC enzyme activity inhibition assay, HDAC6. The class given is biochemical. To be noted: Table 1; for IC50: mean of two experiments ± standard deviation, 10-point assay from 30 μM, 3-fold serial dilution; for Selectivity HDAC1/HDAC6: ratio of IC50 values.
Chain of Human HDAC6 (Q9UBN7 whole entry): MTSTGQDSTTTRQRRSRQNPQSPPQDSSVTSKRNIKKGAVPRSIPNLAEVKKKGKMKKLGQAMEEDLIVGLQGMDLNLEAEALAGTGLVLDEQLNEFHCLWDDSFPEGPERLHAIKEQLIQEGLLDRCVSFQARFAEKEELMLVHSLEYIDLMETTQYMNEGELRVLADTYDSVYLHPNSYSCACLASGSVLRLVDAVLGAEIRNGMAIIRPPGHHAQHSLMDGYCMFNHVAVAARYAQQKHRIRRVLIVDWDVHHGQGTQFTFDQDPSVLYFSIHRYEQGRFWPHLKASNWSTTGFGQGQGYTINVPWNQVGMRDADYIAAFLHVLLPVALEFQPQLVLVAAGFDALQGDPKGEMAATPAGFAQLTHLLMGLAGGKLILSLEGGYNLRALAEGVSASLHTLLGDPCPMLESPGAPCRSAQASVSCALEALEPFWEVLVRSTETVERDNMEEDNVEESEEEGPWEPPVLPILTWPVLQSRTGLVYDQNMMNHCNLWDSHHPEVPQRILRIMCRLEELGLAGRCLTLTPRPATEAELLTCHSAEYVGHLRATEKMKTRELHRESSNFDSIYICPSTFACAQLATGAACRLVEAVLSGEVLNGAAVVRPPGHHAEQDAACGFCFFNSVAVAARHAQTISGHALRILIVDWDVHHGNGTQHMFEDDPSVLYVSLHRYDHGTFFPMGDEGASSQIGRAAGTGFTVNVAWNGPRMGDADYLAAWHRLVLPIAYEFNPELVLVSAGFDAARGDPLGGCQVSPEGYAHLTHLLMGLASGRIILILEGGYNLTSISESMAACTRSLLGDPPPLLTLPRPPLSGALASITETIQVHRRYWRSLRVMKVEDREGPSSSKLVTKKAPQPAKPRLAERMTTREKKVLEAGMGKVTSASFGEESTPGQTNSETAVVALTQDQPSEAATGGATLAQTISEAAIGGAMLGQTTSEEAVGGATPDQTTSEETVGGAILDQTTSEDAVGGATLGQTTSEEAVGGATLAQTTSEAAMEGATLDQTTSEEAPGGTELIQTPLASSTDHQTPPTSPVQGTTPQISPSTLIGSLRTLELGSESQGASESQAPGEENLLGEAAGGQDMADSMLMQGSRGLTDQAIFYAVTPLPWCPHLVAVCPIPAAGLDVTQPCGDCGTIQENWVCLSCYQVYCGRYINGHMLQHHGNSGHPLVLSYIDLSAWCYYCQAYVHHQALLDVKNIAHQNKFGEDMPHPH
The target of the next assay is HDAC9 (Homo sapiens (Human), UniProt Q9UKV0). Briefly: HDAC enzyme activity inhibition assay, HDAC9. The class given is biochemical. Particulars: Table 2; mean of two experiments.
Chain of HDAC9 (Q9UKV0 whole entry): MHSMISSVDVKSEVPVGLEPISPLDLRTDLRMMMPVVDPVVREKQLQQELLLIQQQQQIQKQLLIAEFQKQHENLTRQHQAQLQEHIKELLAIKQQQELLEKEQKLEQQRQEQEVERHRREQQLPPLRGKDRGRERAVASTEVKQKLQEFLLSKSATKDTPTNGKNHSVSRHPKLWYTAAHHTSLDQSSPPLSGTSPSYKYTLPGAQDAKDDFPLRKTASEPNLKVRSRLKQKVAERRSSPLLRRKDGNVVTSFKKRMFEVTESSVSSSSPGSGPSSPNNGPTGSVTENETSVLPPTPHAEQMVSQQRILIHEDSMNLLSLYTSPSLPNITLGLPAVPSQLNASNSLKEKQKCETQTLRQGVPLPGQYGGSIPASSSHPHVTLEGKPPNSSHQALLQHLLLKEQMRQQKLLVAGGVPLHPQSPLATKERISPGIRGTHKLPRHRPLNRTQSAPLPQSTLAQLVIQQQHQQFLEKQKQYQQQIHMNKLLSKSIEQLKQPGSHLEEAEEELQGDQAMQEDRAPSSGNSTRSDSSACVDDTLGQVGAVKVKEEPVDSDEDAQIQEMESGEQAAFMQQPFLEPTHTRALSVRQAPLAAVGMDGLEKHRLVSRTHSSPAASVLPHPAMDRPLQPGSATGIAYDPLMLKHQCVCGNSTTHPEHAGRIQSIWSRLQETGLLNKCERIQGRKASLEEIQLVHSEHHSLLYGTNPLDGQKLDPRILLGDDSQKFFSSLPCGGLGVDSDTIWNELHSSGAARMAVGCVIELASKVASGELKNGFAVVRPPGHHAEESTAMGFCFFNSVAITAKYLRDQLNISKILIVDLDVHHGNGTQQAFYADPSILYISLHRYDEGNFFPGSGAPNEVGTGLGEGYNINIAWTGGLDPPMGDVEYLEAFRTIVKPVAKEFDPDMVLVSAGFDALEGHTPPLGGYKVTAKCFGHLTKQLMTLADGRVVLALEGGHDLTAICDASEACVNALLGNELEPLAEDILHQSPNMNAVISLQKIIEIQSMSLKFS
The target in a further assay is HDAC5 (Homo sapiens (Human), UniProt Q9UQL6). Briefly: HDAC enzyme activity inhibition assay, HDAC5. Format: biochemical. To be noted: Table 2; mean of two experiments.
A further assay deals with HDAC10 (Homo sapiens (Human), UniProt Q969S8). Briefly: HDAC enzyme activity inhibition assay, HDAC10. Particulars: Table 2; mean of two experiments. Format: biochemical.
For another assay, the system named is cardiac fibroblasts. Briefly: Tubulin acetylation in adult rat cardiac fibroblasts. The class given is cell-based. Particulars: in comparison to the DMSO control (FIG. 2). The protocol: The ability of the inhibitor to induce tubulin acetylation in cardiac fibroblasts was also determined and western blot is shown below.
The target in a further assay is HDAC7 (Homo sapiens (Human), UniProt Q8WUI4). Briefly: biochemical.
In another assay the target is HDAC4 (Homo sapiens (Human), UniProt P56524). Briefly: HDAC enzyme activity inhibition assay, HDAC4. Format: biochemical. To be noted: Table 2; mean of two experiments.
Chain of HDAC4 (P56524 whole entry): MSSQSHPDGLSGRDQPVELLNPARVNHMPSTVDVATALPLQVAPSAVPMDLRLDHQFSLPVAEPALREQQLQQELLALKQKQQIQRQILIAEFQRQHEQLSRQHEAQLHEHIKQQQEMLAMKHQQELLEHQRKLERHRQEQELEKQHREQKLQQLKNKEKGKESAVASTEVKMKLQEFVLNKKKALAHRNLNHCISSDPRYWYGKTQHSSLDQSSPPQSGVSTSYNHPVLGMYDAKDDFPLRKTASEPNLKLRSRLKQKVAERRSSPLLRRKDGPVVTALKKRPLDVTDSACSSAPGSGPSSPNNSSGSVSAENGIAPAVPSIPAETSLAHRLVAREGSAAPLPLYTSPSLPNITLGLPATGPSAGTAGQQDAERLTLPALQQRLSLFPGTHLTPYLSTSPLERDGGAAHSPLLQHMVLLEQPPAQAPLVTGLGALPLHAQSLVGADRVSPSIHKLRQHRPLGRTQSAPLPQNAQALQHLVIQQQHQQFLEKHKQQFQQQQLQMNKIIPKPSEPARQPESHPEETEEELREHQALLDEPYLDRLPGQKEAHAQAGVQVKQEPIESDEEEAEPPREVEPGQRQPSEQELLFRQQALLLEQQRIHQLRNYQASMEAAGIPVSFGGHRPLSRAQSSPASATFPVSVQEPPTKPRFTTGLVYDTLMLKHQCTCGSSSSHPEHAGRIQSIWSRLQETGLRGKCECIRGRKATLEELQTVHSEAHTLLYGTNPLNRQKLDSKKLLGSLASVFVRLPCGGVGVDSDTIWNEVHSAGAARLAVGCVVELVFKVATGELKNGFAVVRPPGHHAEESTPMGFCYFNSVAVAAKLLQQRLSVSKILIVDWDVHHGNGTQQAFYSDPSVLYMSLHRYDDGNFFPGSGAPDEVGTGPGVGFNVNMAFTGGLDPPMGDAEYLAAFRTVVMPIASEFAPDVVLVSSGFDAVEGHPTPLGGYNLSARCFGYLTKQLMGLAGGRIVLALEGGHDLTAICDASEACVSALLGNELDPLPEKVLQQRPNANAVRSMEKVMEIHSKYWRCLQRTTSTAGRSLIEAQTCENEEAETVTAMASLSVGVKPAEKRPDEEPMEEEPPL
The target of another assay is HDAC3/NcoR2 complex (Homo sapiens (Human), UniProt O15379). Briefly: HDAC enzyme activity inhibition assay, HDAC3. Format: biochemical. To be noted: Table 2; mean of two experiments.
Chain of HDAC3/NcoR2 complex (O15379 whole entry): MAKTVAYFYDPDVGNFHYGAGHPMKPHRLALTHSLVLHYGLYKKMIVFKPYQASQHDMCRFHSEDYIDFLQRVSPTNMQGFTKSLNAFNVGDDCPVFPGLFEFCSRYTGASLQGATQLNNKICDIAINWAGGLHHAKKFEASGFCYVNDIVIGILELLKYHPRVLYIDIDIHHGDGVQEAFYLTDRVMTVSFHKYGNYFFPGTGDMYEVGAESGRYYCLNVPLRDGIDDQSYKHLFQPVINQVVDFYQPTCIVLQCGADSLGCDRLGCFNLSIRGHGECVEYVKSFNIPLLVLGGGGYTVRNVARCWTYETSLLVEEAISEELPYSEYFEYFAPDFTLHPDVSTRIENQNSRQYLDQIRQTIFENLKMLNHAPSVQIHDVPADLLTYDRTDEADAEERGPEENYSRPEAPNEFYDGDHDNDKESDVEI
Chain of HDAC3/NcoR2 complex (Q9Y618 395-489 partner): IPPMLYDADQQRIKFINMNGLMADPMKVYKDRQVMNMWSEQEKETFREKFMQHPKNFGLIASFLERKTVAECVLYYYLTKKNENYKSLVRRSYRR
The target of another assay is HDAC11 (Homo sapiens (Human), UniProt Q96DB2). Briefly: HDAC enzyme activity inhibition assay, HDAC11. Particulars: Table 2; mean of two experiments. The class given is biochemical.
Chain of HDAC11 (Q96DB2 whole entry): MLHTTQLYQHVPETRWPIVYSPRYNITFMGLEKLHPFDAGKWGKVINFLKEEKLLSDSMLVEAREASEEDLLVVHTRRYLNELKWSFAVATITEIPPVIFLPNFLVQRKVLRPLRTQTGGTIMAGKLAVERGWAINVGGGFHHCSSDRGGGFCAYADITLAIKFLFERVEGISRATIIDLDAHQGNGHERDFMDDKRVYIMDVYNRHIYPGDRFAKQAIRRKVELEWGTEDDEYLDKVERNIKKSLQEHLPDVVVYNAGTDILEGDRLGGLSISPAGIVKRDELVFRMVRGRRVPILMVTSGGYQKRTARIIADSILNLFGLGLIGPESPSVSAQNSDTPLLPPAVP
Another assay relates to GBM6 cells. Briefly: Growth inhibition of glioblastoma cell line GBM6. Format: cell-based. To be noted: FIG. 4.
The target of another assay is HDAC8 (Homo sapiens (Human), UniProt Q9BY41). Briefly: HDAC enzyme activity inhibition assay, HDAC8. Format: biochemical.
Chain of HDAC8 (Q9BY41 whole entry): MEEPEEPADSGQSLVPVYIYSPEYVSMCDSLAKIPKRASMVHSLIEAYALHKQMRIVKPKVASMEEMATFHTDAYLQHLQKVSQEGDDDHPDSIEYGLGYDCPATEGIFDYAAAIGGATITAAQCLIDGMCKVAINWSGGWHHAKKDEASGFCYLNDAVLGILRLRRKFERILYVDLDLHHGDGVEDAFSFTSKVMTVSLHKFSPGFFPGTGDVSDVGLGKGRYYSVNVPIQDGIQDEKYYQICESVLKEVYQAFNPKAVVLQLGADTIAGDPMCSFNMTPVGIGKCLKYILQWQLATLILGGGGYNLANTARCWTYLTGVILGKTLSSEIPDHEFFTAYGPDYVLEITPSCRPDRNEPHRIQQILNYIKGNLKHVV
In a further assay the target is HDAC2 (Homo sapiens (Human), UniProt Q92769). Briefly: HDAC enzyme activity inhibition assay, HDAC2. Format: biochemical. To be noted: Table 2; mean of two experiments.
In assay [1] the test system is symptomatic mutant HSPB1 mice. To be noted: cited from earlier work.
The subject of another assay is mice with colitis. Particulars: treatment begun once colitis had developed; cited from earlier work.

Each structure is given as a SMILES string.

With `CN(C)c1ccc(C(=O)NCCCCCNC(=O)CS)cc1` [DMA-PB, 4-dimethylamino-N-[5-(2-mercaptoacetylamino)pentyl]benzamide], the “histone H3 acetylation and microglia inflammatory response” value with traumatic brain injury is “increase histone H3 acetylation and reduce microglia inflammatory response”.

As to `O=C(NO)c1ccc(CN2CCCc3ccccc32)cc1` [Example 1, 4-((3,4-dihydroquinolin-1(2H)-yl)methyl)-N-hydroxybenzamide], the figures for the IC50 on Human HDAC1 and at Human HDAC6 were 11100 nM and 14.6 nM, respectively. Moreover, the “Selectivity HDAC1/HDAC6” value at Human HDAC6 is listed as 760.

With `O=C(NO)c1ccc(CN2CCCc3cc(Cl)ccc32)cc1` [Example 2, 4-((6-chloro-3,4-dihydroquinolin-1(2H)-yl)methyl)-N-hydroxybenzamide], the IC50 (in general, the point on the concentration scale where inhibition reaches its midpoint) against HDAC9 is 3460 nM; on HDAC5, 4550 nM; at HDAC10, more than 30000 nM; against HDAC7 it was 4060 nM; at HDAC4 it was 11000 nM; against HDAC3/NcoR2 complex it was more than 30000 nM. Further, the figures for the IC50 against HDAC11, on HDAC8 and at HDAC2 were 746 nM, 3340 nM and more than 30000 nM, respectively. For the same molecule, in the assay with cardiac fibroblasts, the tubulin acetylation entry is on record as “robust tubulin acetylation”. Further, the “growth of glioblastoma cell line (GBM6)” value in the assay with GBM6 cells was “inhibit the growth”.

Consider `O=C(NO)c1ccc(CN2CCCc3cc(Cl)ccc32)c(F)c1` [Example 3, 4-((6-chloro-3,4-dihydroquinolin-1(2H)-yl)methyl)-3-fluoro-N-hydroxybenzamide], for which the IC50 on Human HDAC1 was found to be 21200 ± 1150 nM. In addition, on Human HDAC6, the IC50 came out at 12.4 ± 5.5 nM and the “Selectivity HDAC1/HDAC6” value is 1706.

With `CC(c1ccc(C(=O)NO)cc1)N1CCCc2cc(Cl)ccc21` (centres unmarked) [Example 4, 4-(1-(6-chloro-3,4-dihydroquinolin-1(2H)-yl)ethyl)-N-hydroxybenzamide], the IC50 against Human HDAC1 was determined as 8430 ± 30 nM; against Human HDAC6, 382 ± 20.5 nM. Also, on Human HDAC6, the “Selectivity HDAC1/HDAC6” value is recorded as 22.

`O=C(NO)c1ccc(CN2CCCc3cc(F)ccc32)cc1` [Example 5, 4-((6-fluoro-3,4-dihydroquinolin-1(2H)-yl)methyl)-N-hydroxybenzamide] yielded an IC50 against Human HDAC1 of 5235 ± 45 nM. In addition, at Human HDAC6, the IC50 came out at 5.05 ± 0.23 nM and the “Selectivity HDAC1/HDAC6” value was 1037.

Regarding `O=C(NO)c1ccc(CN2CCCc3cc(Cl)c(Cl)cc32)cc1` [Example 6, 4-((6,7-dichloro-3,4-dihydroquinolin-1(2H)-yl)methyl)-N-hydroxybenzamide], at Human HDAC1, the IC50 is 2620 ± 115 nM. For the same molecule, at Human HDAC6, the IC50 came out at 3.59 ± 0.1 nM and the “Selectivity HDAC1/HDAC6” value is listed as 728.

In the case of `O=C(NO)c1ccc(CN2CCCc3cc(F)c(Cl)cc32)cc1` [Example 7, 4-((7-chloro-6-fluoro-3,4-dihydroquinolin-1(2H)-yl)methyl)-N-hydroxybenzamide], on Human HDAC1, the IC50 came to 1865 ± 5 nM. Moreover, at Human HDAC6, the IC50 stood at 3.43 ± 0.27 nM and the “Selectivity HDAC1/HDAC6” value amounted to 544.

`O=C(NO)c1ccc(CN2CCCc3cc(Cl)c(F)cc32)cc1` [Example 8, 4-((6-chloro-7-fluoro-3,4-dihydroquinolin-1(2H)-yl)methyl)-N-hydroxybenzamide]: at Human HDAC1, the midpoint of inhibition, the IC50, lay at 3220 ± 85 nM. Also, at Human HDAC6, it took 4.8 ± 0.78 nM to reach half-maximal inhibition (IC50) and the “Selectivity HDAC1/HDAC6” value is on record as 670.

Consider `CC1(C)CCc2cc(Cl)ccc2N1Cc1ccc(C(=O)NO)cc1` [Example 9, 4-((6-chloro-2,2-dimethyl-3,4-dihydroquinolin-1(2H)-yl)methyl)-N-hydroxybenzamide], for which the IC50 against Human HDAC1 was 19600 ± 2450 nM. For the same molecule, at Human HDAC6, half-maximal inhibition (IC50) required 328 ± 15.5 nM and the “Selectivity HDAC1/HDAC6” value amounted to 60.

On to `CC1(C)CCc2cc(F)ccc2N1Cc1ccc(C(=O)NO)cc1` [Example 10, 4-((6-fluoro-2,2-dimethyl-3,4-dihydroquinolin-1(2H)-yl)methyl)-N-hydroxybenzamide], for which the IC50 at Human HDAC1 was 14100 ± 1900 nM; against Human HDAC6 it was 161 ± 3 nM. In addition, the “Selectivity HDAC1/HDAC6” value on Human HDAC6 is on record as 88.

With `CC1(C)CC(=O)N(Cc2ccc(C(=O)NO)cc2)c2ccc(Cl)cc21` [Example 11, 4-((6-chloro-4,4-dimethyl-2-oxo-3,4-dihydroquinolin-1(2H)-yl)methyl)-N-hydroxybenzamide], the IC50 against Human HDAC1 is 6500 ± 230 nM. At Human HDAC6, the IC50 is 28.9 ± 1.1 nM and the “Selectivity HDAC1/HDAC6” value is on record as 225.

Turning to `CC1(C)CCN(Cc2ccc(C(=O)NO)cc2)c2ccc(Cl)cc21` [Example 12, 4-((6-chloro-4,4-dimethyl-3,4-dihydroquinolin-1(2H)-yl)methyl)-N-hydroxybenzamide], the IC50 at Human HDAC1 turned out to be 19500 ± 700 nM; against Human HDAC6 it was 37.8 ± 4.8 nM. In addition, on Human HDAC6, the “Selectivity HDAC1/HDAC6” value amounted to 516.

`CC1(C)CCN(Cc2ccc(C(=O)NO)cc2)c2ccc(F)cc21` [Example 13, 4-((6-fluoro-4,4-dimethyl-3,4-dihydroquinolin-1(2H)-yl)methyl)-N-hydroxybenzamide]: it took 21100 ± 800 nM to reach half-maximal inhibition on Human HDAC1 (IC50). Moreover, on Human HDAC6, the IC50 turned out to be 45.1 ± 0.05 nM and the “Selectivity HDAC1/HDAC6” value worked out at 468.

In the case of `O=C(NO)c1ccc(CN2CCNc3ccccc32)cc1` [Example 14, 4-((3,4-dihydroquinoxalin-1(2H)-yl)methyl)-N-hydroxybenzamide], the IC50 against Human HDAC1 was determined as 8750 ± 1070 nM. Further, at Human HDAC6, the IC50 came to 2.9 ± 0.4 nM and the “Selectivity HDAC1/HDAC6” value stood at 3017.

At Human HDAC1, `O=C(NO)c1ccc(CN2CCN(CC3CC3)c3ccccc32)cc1` [Example 15, 4-((4-(cyclopropylmethyl)-3,4-dihydroquinoxalin-1(2H)-yl)methyl)-N-hydroxybenzamide] came in with an IC50 of 6690 ± 270 nM. Besides, on Human HDAC6, the IC50 came to 39.3 ± 0.3 nM and the “Selectivity HDAC1/HDAC6” value came out at 170.

Turning to `O=C(NO)c1ccc(CN2CCSc3ccccc32)cc1` [Example 16, 4-((2,3-dihydro-4H-benzo[b][1,4]thiazin-4-yl)methyl)-N-hydroxybenzamide], the IC50 worked out at 7935 ± 25 nM against Human HDAC1 and 6.1 ± 0.1 nM on Human HDAC6. In addition, at Human HDAC6, the “Selectivity HDAC1/HDAC6” value was determined as 1300.

On to `O=C(NO)c1ccc(CN2CC[S+]([O-])c3ccccc32)cc1` (centres unmarked) [Example 17, N-hydroxy-4-((1-oxido-2,3-dihydro-4H-benzo[b][1,4]thiazin-4-yl)methyl)benzamide], for which the IC50 against Human HDAC1 is 2600 ± 30 nM; against Human HDAC6 it was 2 ± 0.1 nM. In addition, the “Selectivity HDAC1/HDAC6” value on Human HDAC6 was 1300.

The molecule `CC(C)(C)OC(=O)N1CC(=O)N(Cc2ccc(C(=O)NO)cc2)c2ccccc21` [Example 18, tert-butyl 4-(4-(hydroxycarbamoyl)benzyl)-3-oxo-3,4-dihydroquinoxaline-1(2H)-carboxylate] returned an IC50 at Human HDAC1 of 22000 ± 1550 nM. In addition, at Human HDAC6, the IC50 was determined as 33.6 ± 1.9 nM and the “Selectivity HDAC1/HDAC6” value stood at 653.

Take `O=C(NO)c1ccc(Cn2c(=O)cnc3ccccc32)cc1` [Example 19, N-hydroxy-4-((2-oxoquinoxalin-1(2H)-yl)methyl)benzamide]: the IC50 against Human HDAC1 stood at 1045 ± 5 nM. In addition, at Human HDAC6, half-maximal inhibition (IC50) was put at 1.2 ± 0.3 nM and the “Selectivity HDAC1/HDAC6” value is reported as 870.

On to `CN1CCc2c(c3ccccc3n2Cc2ccc(C(=O)NO)cc2)C1` [Tubastatin A], for which the “axonal transport defects and CMT phenotype” value in assay [1] was “corrects the axonal transport defects induced by HSPB1 mutations and rescues the CMT phenotype”.

On to `O=C(CCCCCCC(=O)Nc1ccc([C@H]2O[C@@H](CSc3nc(-c4ccccc4)c(-c4ccccc4)o3)C[C@@H](c3ccc(CO)cc3)O2)cc1)NO` [tubacin], for which the “rescue of mice with colitis” value with mice with colitis is “able to rescue mice”.
